Data taken from ChEMBL document CHEMBL6092193, “Identification of furo[2,3-d]pyrimidin-4-ylsulfanyl-1,3,4-thiadiazole derivatives as novel FLT3-ITD inhibitors” (Eur J Med Chem, 2024).
Active and inactive are the calls of the source. The rule behind the calls is not given here.

Key:
MV4-11 [1] = experiment: Induction of cell cycle arrest in human MV4-11 cells assessed as proportion of cells at S phase at 16 nM incubated for 24 hrs by PI staining based flow cytometry (reference value: 25.97%); format: functional
MV4-11 [2] = experiment: Induction of cell cycle arrest in human MV4-11 cells assessed as proportion of cells at S phase at 400 nM incubated for 24 hrs by PI staining based flow cytometry (reference value: 25.97%); format: functional
MV4-11 [3] = experiment: Antiproliferative activity against human MV4-11 cells harboring homozygous FLT3-ITD mutant assessed as inhibition of cell growth incubated for 72 hrs by resazurin dye based fluorescence analysis; format: functional
HL-60 [4] = experiment: Induction of cell cycle arrest in human HL-60 cells assessed as proportion of cells at G1 phase at 16 nM incubated for 24 hrs by PI staining based flow cytometry (reference value: 49.36%); format: functional
HL-60 [5] = experiment: Induction of cell cycle arrest in human HL-60 cells assessed as proportion of cells at S phase at 400 nM incubated for 24 hrs by PI staining based flow cytometry (reference value: 36.12%); format: functional
HL-60 [6] = experiment: Induction of cell cycle arrest in human HL-60 cells assessed as proportion of cells at G2/M phase at 80 nM incubated for 24 hrs by PI staining based flow cytometry (reference value: 14.52%); format: functional
[7] = biological target: Receptor-type tyrosine-protein kinase FLT3 (Homo sapiens) (UniProt P36888); experiment: Inhibition of FLT3 in human MV4-11 cells assessed as inhibition of FLT3 autophosphorylation at Tyr589/591 residues incubated for 1 hr by immunoblot analysis; format: cell-based; details: dose lower […], dose upper 2000.0 nM
[8] = system: Receptor-type tyrosine-protein kinase FLT3 (Homo sapiens), P36888 [UNDEFINED MUTATION]; format: cell-based; details: BaF3, dose lower […], dose upper 2000.0 nM, time 2.0 hrs
HL-60 [9] = experiment: Induction of cell cycle arrest in human HL-60 cells assessed as proportion of cells at subG1 phase at 2000 nM incubated for 24 hrs by PI staining based flow cytometry (reference value: 6.94%); format: functional
EOL1 = experiment: cells; details: Homo sapiens, EOL1, 72 h
Description: Antiproliferative activity against human EOL1 cells harboring FIP1L1-PDGFRA fusion gene assessed as inhibition of cell growth incubated for 72 hrs by resazurin dye based fluorescence analysis

HL-60 [10] = experiment: Induction of cell cycle arrest in human HL-60 cells assessed as proportion of cells at G2/M phase at 400 nM incubated for 24 hrs by PI staining based flow cytometry (reference value: 14.52%); format: functional
MV4-11 [11] = experiment: Induction of cell cycle arrest in human MV4-11 cells assessed as proportion of cells at subG1 phase at 400 nM incubated for 24 hrs by PI staining based flow cytometry (reference value: 10.44%); format: functional
[12] = system: Receptor-type tyrosine-protein kinase FLT3 (Homo sapiens), P36888 [UNDEFINED MUTATION]; experiment: Inhibition of FLT3-ITD mutant (unknown origin) expressed in mouse BaF3 cells assessed as inhibition of ERK1/2 phosphorylation at Thr202/Tyr204 residues at 16 to 2000 nM incubated for 2 hrs by immunoblot analysis; format: cell-based; details: dose lower […], dose upper 2000.0 nM
MV4-11 [13] = format: functional, Homo sapiens; details: dose 2000 nM; time 24 hrs
MV4-11 [14] = experiment: Induction of cell cycle arrest in human MV4-11 cells assessed as proportion of cells at G2/M phase at 80 nM incubated for 24 hrs by PI staining based flow cytometry (reference value: 10%); format: functional
[15] = Selectivity ratio of GI50 for antiproliferative activity against human MV4-11 cells to GI50 for antiproliferative activity against human MOLM-13 cells
MV4-11 [16] = experiment: Induction of cell cycle arrest in human MV4-11 cells assessed as proportion of cells at subG1 phase at 16 nM incubated for 24 hrs by PI staining based flow cytometry (reference value: 10.44%); format: functional
[17] = system: Receptor-type tyrosine-protein kinase FLT3 (Homo sapiens), P36888 [UNDEFINED MUTATION]; format: cell-based; details: BaF3, dose lower […], dose upper 2000.0 nM, time 2.0 hrs; remark: listed apart in the source
HL-60 [18] = experiment: cells; details: Homo sapiens, HL-60, 72 h
Description: Antiproliferative activity against human HL-60 cells assessed as inhibition of cell growth incubated for 72 hrs by resazurin dye based fluorescence analysis

HL-60 [19] = experiment: Induction of cell cycle arrest in human HL-60 cells assessed as proportion of cells at G1 phase at 80 nM incubated for 24 hrs by PI staining based flow cytometry (reference value: 49.36%); format: functional
HL-60 [20] = experiment: Induction of cell cycle arrest in human HL-60 cells assessed as proportion of cells at S phase at 2000 nM incubated for 24 hrs by PI staining based flow cytometry (reference value: 36.12%); format: functional
MV4-11 [21] = format: functional, Homo sapiens; details: dose 400 nM; time 24 hrs
[22] = system: Receptor-type tyrosine-protein kinase FLT3 (Homo sapiens), P36888 [UNDEFINED MUTATION]; experiment: Inhibition of FLT3-ITD mutant (unknown origin) expressed in mouse BaF3 cells assessed as inhibition of STAT5 phosphorylation at Tyr694 residue at 16 to 2000 nM incubated for 2 hrs by immunoblot analysis; format: cell-based; details: dose lower […], dose upper 2000.0 nM
HL-60 [23] = experiment: Induction of cell cycle arrest in human HL-60 cells assessed as proportion of cells at subG1 phase at 16 nM incubated for 24 hrs by PI staining based flow cytometry (reference value: 6.94%); format: functional
[24] = biological target: Receptor-type tyrosine-protein kinase FLT3 (Homo sapiens) (UniProt P36888); experiment: Inhibition of FLT3 in human MV4-11 cells assessed as inhibition of ERK1/2 phosphorylation at Thr202/Tyr204 residues incubated for 1 hr by immunoblot analysis; format: cell-based; details: dose lower […], dose upper 2000.0 nM
MV4-11 [25] = experiment: Induction of cell cycle arrest in human MV4-11 cells assessed as proportion of cells at S phase at 3.2 nM incubated for 24 hrs by PI staining based flow cytometry (reference value: 25.97%); format: functional
HL-60 [26] = experiment: Induction of cell cycle arrest in human HL-60 cells assessed as proportion of cells at subG1 phase at 3.2 nM incubated for 24 hrs by PI staining based flow cytometry (reference value: 6.94%); format: functional
HL-60 [27] = experiment: Induction of cell cycle arrest in human HL-60 cells assessed as proportion of cells at S phase at 80 nM incubated for 24 hrs by PI staining based flow cytometry (reference value: 36.12%); format: functional
[28] = biological target: Receptor-type tyrosine-protein kinase FLT3 (Homo sapiens, UniProt P36888, ITD); experiment: biochemical; format: cell-based, Sf9
HL-60 [29] = experiment: Induction of cell cycle arrest in human HL-60 cells assessed as proportion of cells at G1 phase at 400 nM incubated for 24 hrs by PI staining based flow cytometry (reference value: 49.36%); format: functional
[30] = biological target: High affinity nerve growth factor receptor (Homo sapiens) (UniProt P04629); experiment: Binding affinity to human TrkA (441 to 760 residues) expressed in baculovirus-infected Sf21 cells assessed as residual activity using poly(Glu:Tyr) as substrate in presence of ATP and [gamma-33P]ATP incubated for 30 mins by MRC Protein Phoshorylation and Ubiquitylation Unit based Express Panel assay
HL-60 [31] = experiment: Induction of cell cycle arrest in human HL-60 cells assessed as proportion of cells at G1 phase at 2000 nM incubated for 24 hrs by PI staining based flow cytometry (reference value: 49.36%); format: functional
HL-60 [32] = experiment: Induction of cell cycle arrest in human HL-60 cells assessed as proportion of cells at G2/M phase at 16 nM incubated for 24 hrs by PI staining based flow cytometry (reference value: 14.52%); format: functional
Kasumi 1 = experiment: cells; details: Homo sapiens, Kasumi 1, 72 h
Description: Antiproliferative activity against human Kasumi 1 cells harboring KIT N822K mutant assessed as inhibition of cell growth incubated for 72 hrs by resazurin dye based fluorescence analysis

[33] = system: Receptor-type tyrosine-protein kinase FLT3 (Homo sapiens), P36888 [UNDEFINED MUTATION]; format: cell-based; details: BaF3, dose lower […], dose upper 2000.0 nM, time 2.0 hrs; remark: listed apart in the source

Sequence of Receptor-type tyrosine-protein kinase FLT3 (Homo sapiens), P36888 [UNDEFINED MUTATION] (P36888 whole entry, looked up, change not shown): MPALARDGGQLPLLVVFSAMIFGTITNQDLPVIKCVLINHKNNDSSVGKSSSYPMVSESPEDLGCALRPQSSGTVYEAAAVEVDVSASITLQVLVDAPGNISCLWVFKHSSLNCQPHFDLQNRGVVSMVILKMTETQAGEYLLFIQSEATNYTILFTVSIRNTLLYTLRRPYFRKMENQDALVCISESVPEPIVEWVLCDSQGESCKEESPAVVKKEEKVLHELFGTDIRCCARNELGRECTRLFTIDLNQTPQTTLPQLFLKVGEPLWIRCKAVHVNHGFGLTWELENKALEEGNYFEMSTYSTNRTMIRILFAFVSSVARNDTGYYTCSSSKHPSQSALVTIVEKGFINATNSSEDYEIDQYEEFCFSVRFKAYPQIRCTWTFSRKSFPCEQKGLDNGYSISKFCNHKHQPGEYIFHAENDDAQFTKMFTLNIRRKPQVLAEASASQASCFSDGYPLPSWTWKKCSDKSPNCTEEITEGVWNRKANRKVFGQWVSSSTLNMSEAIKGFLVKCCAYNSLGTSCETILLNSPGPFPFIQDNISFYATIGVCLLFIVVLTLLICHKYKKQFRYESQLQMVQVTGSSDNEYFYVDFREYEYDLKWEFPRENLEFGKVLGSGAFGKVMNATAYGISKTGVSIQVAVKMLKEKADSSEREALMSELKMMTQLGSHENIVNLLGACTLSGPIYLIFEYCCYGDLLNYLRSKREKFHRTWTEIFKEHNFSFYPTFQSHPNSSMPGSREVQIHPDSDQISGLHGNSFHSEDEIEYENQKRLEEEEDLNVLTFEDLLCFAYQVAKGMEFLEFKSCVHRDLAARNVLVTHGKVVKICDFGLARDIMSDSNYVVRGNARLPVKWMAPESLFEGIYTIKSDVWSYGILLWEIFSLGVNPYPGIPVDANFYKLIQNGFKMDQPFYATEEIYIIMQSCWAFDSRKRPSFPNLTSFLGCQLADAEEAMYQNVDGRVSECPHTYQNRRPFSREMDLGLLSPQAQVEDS
Sequence of Receptor-type tyrosine-protein kinase FLT3 (Homo sapiens) (P36888 whole entry): as the sequence (P36888 whole entry, looked up, change not shown) above
Sequence of Receptor-type tyrosine-protein kinase FLT3 (P36888 whole entry, looked up, change not shown): as above
Sequence of High affinity nerve growth factor receptor (Homo sapiens) (P04629 33-796 limits assumed): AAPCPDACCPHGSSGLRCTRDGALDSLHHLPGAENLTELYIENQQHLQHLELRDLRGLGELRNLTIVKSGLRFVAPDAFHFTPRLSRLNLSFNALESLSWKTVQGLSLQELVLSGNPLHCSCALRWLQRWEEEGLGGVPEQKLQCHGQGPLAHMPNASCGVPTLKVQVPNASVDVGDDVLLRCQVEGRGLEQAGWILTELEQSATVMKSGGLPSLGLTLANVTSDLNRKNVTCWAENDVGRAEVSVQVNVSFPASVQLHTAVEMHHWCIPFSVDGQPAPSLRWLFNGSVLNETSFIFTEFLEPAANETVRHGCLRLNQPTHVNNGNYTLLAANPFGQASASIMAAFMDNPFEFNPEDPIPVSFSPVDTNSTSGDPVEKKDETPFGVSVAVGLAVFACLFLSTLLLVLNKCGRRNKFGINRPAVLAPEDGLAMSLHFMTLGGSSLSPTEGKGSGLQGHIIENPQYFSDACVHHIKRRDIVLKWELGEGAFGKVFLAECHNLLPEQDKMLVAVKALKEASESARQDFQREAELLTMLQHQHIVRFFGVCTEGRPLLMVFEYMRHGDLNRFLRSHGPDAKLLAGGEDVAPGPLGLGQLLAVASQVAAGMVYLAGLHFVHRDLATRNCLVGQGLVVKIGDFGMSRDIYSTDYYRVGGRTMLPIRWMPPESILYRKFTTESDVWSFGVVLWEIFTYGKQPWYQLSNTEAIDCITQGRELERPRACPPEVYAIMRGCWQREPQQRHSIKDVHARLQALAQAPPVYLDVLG

`COc1ccc(NC(=O)Nc2nnc(Sc3ncnc4oc(-c5ccccc5)cc34)s2)cc1` showed an Activity (MV4-11 [1]) of 8.07%, an Activity (MV4-11 [2]) of 4.48% and a GI50 (MV4-11 [3]) of 105 nM. It also gave an Activity (HL-60 [4]) of 48.76%, an Activity (HL-60 [5]) of 35.91% and an Activity (HL-60 [6]) of 13.68%. The inhibition [7] was “Dose-dependent-effect”, the inhibition [8] was “Active” and the Activity (HL-60 [9]) was 7.81%. The GI50 (EOL1) was 39 nM, the Activity (HL-60 [10]) was 13.74% and the Activity (MV4-11 [11]) was 32.95%. For the same compound, the inhibition [12] was “Active”, the Activity (MV4-11 [13]) was 93.13% and the Activity (MV4-11 [14]) was 1.23%. The RatioGI50 [15] was 100, the Activity (MV4-11 [16]) was 16.42% and the inhibition [17] was “Active”. For the same compound, the GI50 (HL-60 [18]) was > 10000 nM, the Activity (HL-60 [19]) was 49.29% and the Activity (HL-60 [20]) was 37.26%. For the same compound, the Activity (MV4-11 [21]) was 94.09%, the inhibition [22] was “Active” and the Activity (HL-60 [23]) was 7.48%. For the same compound, the inhibition [24] was “Dose-dependent-effect”, the Activity (MV4-11 [25]) was 20.86% and the Activity (HL-60 [26]) was 7.88%. For the same compound, the Activity (HL-60 [27]) was 37.03%, the IC50 [28] was 31 nM and the Activity (HL-60 [29]) was 50.35%. The Activity [30] was < 50%, the Activity (HL-60 [31]) was 48.8% and the Activity (HL-60 [32]) was 13.57%. The GI50 (Kasumi 1) was 3060 nM and the inhibition [33] was “Active”.
